These results are taken from PubChem BioAssay AID608 (Sanford-Burnham Center for Chemical Genomics, 2007).

Molecules are shown by their SMILES. The source made the active and inactive calls. No rule for the calls is given here.

Chain of Peptidyl-prolyl cis-trans isomerase FKBP1A (Homo sapiens) (P62942 whole entry, looked up): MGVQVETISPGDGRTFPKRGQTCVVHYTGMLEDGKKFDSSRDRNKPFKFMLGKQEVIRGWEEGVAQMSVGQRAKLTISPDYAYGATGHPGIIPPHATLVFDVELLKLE

This assay has as its target Peptidyl-prolyl cis-trans isomerase FKBP1A (Homo sapiens) (UniProt P62942). Description: FKBP12 binders, biophysical, NMR detection (AID 608). The note with it: NMR binding, purified FKBP12.
As for `OCCNC(=S)Nc1ccccc1`, the Kd was > 4 mM (inactive). On to `CC(=O)n1nc(-c2cccnc2)nc1N`, for which the Kd is > 4 mM (inactive). With `c1ccc(SCc2nc(-c3ccccn3)no2)cc1` the figure was > 4 mM (inactive); with `CCN1CCc2c(sc(N)c2C(N)=O)C1`, > 4 mM (inactive). On to `O=C(Nc1ccc(OCC(=O)N2CCOCC2)cc1)c1ccccc1Cl`, for which the Kd was > 4 mM (inactive). For the compound `Cc1onc(-c2c(F)cccc2Cl)c1C(N)=O`, the Kd is > 4 mM (inactive).

Take `O=CN1CCN(C2CC(=O)N(c3ccccc3)C2=O)CC1` (stereo unspecified): the Kd was > 4 mM (inactive).

For `CCNS(=O)(=O)c1ccc(OC)c(C)c1`, the Kd was > 4 mM (inactive). With `Cc1nc(SCC#N)c2c(C)c(C)sc2n1` the figure was > 4 mM (inactive). With `CC1CC[C@@]2(OC1)O[C@H]1CC3C4CC[C@@H]5C[C@@H](O)CC[C@]5(C)C4CC[C@]3(C)[C@H]1[C@@H]2C` (stereo partly specified) the figure was > 4 mM (inactive). On to `NC(=O)c1ccsc1NC(=O)c1cccnc1`, for which the Kd is > 4 mM (inactive). As for `Cn1c(SCC(N)=O)nnc1-c1c[nH]c2ccccc12`, the Kd was > 4 mM (inactive). With `O=C1NCC(=O)N2CCc3ccccc3C12` (stereo unspecified) the figure was > 4 mM (inactive); with `Nc1ccc2c(c1)CCC2=O`, > 4 mM (inactive); with `CC[C@@H]1[C@@H](O)N2C3C[C@H]1C1C(O)[C@]4(C[C@@H]12)c1ccccc1N(C)[C@@H]34` (stereo partly specified), > 4 mM (inactive). Turning to `COC(=O)[C@@H]1OC(=O)C2OC23[C@@]1(C)CCC1[C@]2(C)C(C[C@@H](O)[C@]13C)C(C)(C)[C@H](OC(C)=O)C[C@@H]2OC(C)=O` (stereo partly specified), the Kd was > 4 mM (inactive). Regarding `O=C(NCc1ccncc1)c1cccc(F)c1`, the Kd result was “inactive”. With `O=c1cnnc(N2CCCCC2)[nH]1` the figure was > 4 mM (inactive). On to `O=C(Nc1nncs1)c1c(F)cccc1F`, for which the Kd is > 4 mM (inactive).

Regarding `COC(=O)C[C@H]1C(C)(C)C(=O)[C@@H]2CC3=C(CC[C@]4(C)C3=CC(=O)O[C@H]4c3ccoc3)C1(C)C2=O`, the Kd was > 4 mM (inactive). Take `O=c1c2ccccc2ncn1C1CCCCC1`: the Kd was > 4 mM (inactive). In the case of `CCC[C@H]1CC2=C(C[C@@H](CC)CC3=C1C(=O)OC3=O)C(=O)OC2=O`, the Kd was > 4 mM (inactive). For the compound `O=C(CN1CCOCC1)Nc1nccs1`, the Kd was > 4 mM (inactive). With `COc1ccc(-c2coc3cc(OC)cc(OC)c3c2=O)cc1`, the Kd was > 4 mM (inactive). With `Cc1noc(C)c1C(=O)N1CCc2ccccc2C1` the figure was > 4 mM (inactive). With `c1ccc(CCc2nc(-c3cccnc3)no2)cc1` the figure was > 4 mM (inactive); with `CN1CCN(C(=O)C2CCCNC2)CC1` (stereo unspecified), > 4 mM (inactive). On to `COc1cccc(=O)c2c(C)n(C)c(C)c12`, for which the Kd is > 4 mM (inactive).

As to `Nc1cc(C(F)(F)F)ccc1N1CCOCC1`, the Kd is > 4 mM (inactive). With `COC(=O)Cn1c2ccccc2c2nc(C)sc21` the figure was > 4 mM (inactive); with `CCOc1cc(S(=O)(=O)n2nc(C)cc2C)ccc1F`, > 4 mM (inactive); with `Cc1cc(O)cc(=O)o1`, > 4 mM (inactive). With `CC(=O)Nc1ccccc1-c1ccccc1NC(C)=O` the figure was > 4 mM (inactive); with `O=C(O)C1COc2ccccc2C1` (stereo unspecified), > 4 mM (inactive). Take `O=C(O)C1CCCCN1Cc1ccccc1` (stereo unspecified): the Kd is > 4 mM (inactive). Take `COc1c(-c2ccccc2)oc2c(OC)cccc2c1=O`: the Kd was > 4 mM (inactive). With `Cc1ccc(C2NS(=O)(=O)N=C2N)cc1` (stereo unspecified) the figure was > 4 mM (inactive); with `COc1c(CC=C(C)C)c2c(c3oc(=O)c(-c4ccc(O)cc4)c(O)c13)C=CC(C)(C)O2`, > 4 mM (inactive); with `CC1=NN(C(N)=S)C(C)(C)C1`, > 4 mM (inactive).

For `O=C1CNC(=O)N1Cc1ccc(Br)cc1`, the Kd is > 4 mM (inactive). With `COC(=O)Cc1cccc(OC)c1` the figure was > 4 mM (inactive); with `O=C(O)c1ccnn1-c1ccccc1`, > 4 mM (inactive); with `CC1=C2C(O)C(=O)OC3CC4C(C)(C)C(=O)C=C[C@]4(C)C(CC1)[C@]23C` (stereo partly specified), > 4 mM (inactive). Regarding `COc1ccc(-c2coc3c(OC)c(OC)cc(O)c3c2=O)cc1`, the Kd was > 4 mM (inactive).

In the case of `CC(=O)Oc1c2c(c3c(c1CC=C(C)C)O[C@]14C(=C[C@@H]5CC1C(C)(C)OC4(C/C=C(\C)C(=O)O)C5=O)C3=O)OC(C)(CCC=C(C)C)C=C2` (stereo partly specified), the Kd is > 4 mM (inactive). `O=C(O)c1ccc(-n2cncn2)cc1`: the Kd was > 4 mM (inactive). As to `Cc1cc(=O)n2nc(-c3ccccc3)sc2n1`, the Kd was > 4 mM (inactive). Take `CC1(C)C(=O)C=C[C@@]2(C)C1C=C[C@]1(C)C2CC[C@@]2(C)[C@H](c3ccoc3)OC(=O)C3OC321` (stereo partly specified): the Kd was > 4 mM (inactive). With `CN(C)c1ccc(NC(=O)CC(C(=O)O)N(C)C)cc1` (stereo unspecified) the figure was > 4 mM (inactive); with `Cc1[nH]c2ccccc2c(=O)c1CO`, > 4 mM (inactive); with `COc1ccc2c(c1)OCc1c-2oc2cc(OC)ccc12`, > 4 mM (inactive). With `O=C(O)C1CCN(C(=O)c2cccs2)CC1` the figure was > 4 mM (inactive); with `O=C(Nc1ccccn1)C(=O)N1CCCC1`, > 4 mM (inactive). As to `O=C(Nc1cnccn1)c1cccc(C(F)(F)F)c1`, the Kd is > 4 mM (inactive). With `CC12CC[C@H](CC1=O)C2(C)C` the figure was > 4 mM (inactive); with `COC(=O)c1c(C)c2c(c(C)c1O)OC(=O)c1c(C)c(Cl)c(O)c(Cl)c1O2`, > 4 mM (inactive); with `Fc1ccc(N2CCNCC2)cc1`, > 4 mM (inactive). With `CC(C)[C@@H]1CC[C@@H](C)C[C@H]1OC(=O)c1ccccc1` the figure was > 4 mM (inactive). With `O=C1CC(=O)N(c2ccccc2F)C(=S)N1` the figure was > 4 mM (inactive). Take `N/C(=N/O)C1COc2ccccc2O1` (stereo unspecified): the Kd was > 4 mM (inactive). For `CN1C(=O)C2CC=C(Cl)CC2C1=O` (stereo unspecified), the Kd is > 4 mM (inactive).

Take `OCC1CN(Cc2ccccc2)CCO1` (stereo unspecified): the Kd was > 4 mM (inactive). On to `CNc1nc(N)c(C(=O)C(C)(C)C)s1`, for which the Kd was > 4 mM (inactive). In the case of `CN1CCC=C(C(=O)O)C1`, the Kd was > 4 mM (inactive). Regarding `O=c1c[n+]([O-])c2ccccc2n1OCc1ccccn1`, the Kd is > 4 mM (inactive). As for `O=C(O)CC12CC3CC(CC(O)(C3)C1)C2`, the Kd is > 4 mM (inactive). With `COc1ccc(-c2nnc(-c3ccc(N)cc3)o2)cc1` the figure was > 4 mM (inactive). Take `COc1ccc(Cl)c(S(=O)(=O)N2CCCC2)c1`: the Kd was > 4 mM (inactive). Regarding `Cc1[nH]n(-c2ccccc2)c(=O)c1[N+](=O)[O-]`, the Kd was > 4 mM (inactive). With `Nc1nnc(-c2ccncc2)s1` the figure was > 4 mM (inactive). As to `Nc1nc(SCC(=O)c2ccc([N+](=O)[O-])cc2)n[nH]1`, the Kd was > 4 mM (inactive).

For the compound `NS(=O)(=O)c1ccc(NC(=O)c2ccccc2F)cc1`, the Kd was > 4 mM (inactive). With `COc1ccc(/C=C2/N=C(N)SC2=O)cc1` the figure was > 4 mM (inactive); with `C[n+]1ccn(C/C(N)=N/O)c1`, > 4 mM (inactive).

As to `O=C1NC(=O)C(=Cc2cccs2)C(=O)N1`, the Kd was > 4 mM (inactive). On to `Cc1cc(C)c(OCC(=O)N2CCOCC2)c(C)c1`, for which the Kd entry was “inactive”.

On to `Cc1cc(C)c2nncn2n1`, for which the Kd is > 4 mM (inactive). On to `O=C(O)CN1CCN(C2CCCC2)CC1`, for which the Kd was > 4 mM (inactive). In the case of `COc1cc2c(cc1OC)Cc1cc(OC)c(OC)cc1Cc1cc(OC)c(OC)cc1C2`, the Kd was > 4 mM (inactive). With `O=C(Nc1ccccc1)C(=O)NC1CC1` the figure was > 4 mM (inactive); with `C=C1C2CC[C@@]3(C)[C@H](c4ccoc4)OC(=O)C[C@]13O[C@H]1CC(O)C(C)(C)C(CC(=O)OC)[C@@]21C` (stereo partly specified), > 4 mM (inactive). As to `Cc1ccn(S(=O)(=O)c2ccc(F)cc2)n1`, the Kd was > 4 mM (inactive).

With `COC1(C)CCC2OC2(C)CCC2C1CC2(C)C` (stereo unspecified), the Kd is > 4 mM (inactive). With `COC(=O)c1ccccc1C` the figure was > 4 mM (inactive); with `CN(C)C(=S)Nc1nc2ccccc2s1`, 0.152 mM.

As for `O=S(=O)(Cc1ccccc1)N1CCCCCC1`, the Kd is > 4 mM (inactive). Regarding `O=C1c2ccccc2C(=O)N1/N=C/c1ccc[nH]1`, the Kd was > 4 mM (inactive). With `O=C(NC1=NCCS1)c1ccc([N+](=O)[O-])cc1Cl` the figure was > 4 mM (inactive). With `Cc1cc(NC(=O)c2c(F)c(F)c(F)c(F)c2F)no1` the figure was > 4 mM (inactive); with `COC(=O)[C@@H]1C(O)CC[C@H]2CN3CCc4c([nH]c5ccccc45)[C@@H]3C[C@@H]21` (stereo partly specified), > 4 mM (inactive).

Regarding `CN(C)c1ccc(N2C(=O)CCC2=O)cc1`, the Kd was > 4 mM (inactive).

With `CC1Oc2ccccc2OC1C(=O)N1CCOCC1` (stereo unspecified), the Kd was > 4 mM (inactive).

With `O=C(O)c1ccc2nsnc2c1`, the Kd is > 4 mM (inactive). With `O=C1CSC(=Nc2cccc(C(F)(F)F)c2)N1` the figure was > 4 mM (inactive).

Consider `COc1ccc2c(c1)OC[C@@H](Cc1ccc(OC)c(OC)c1)[C@@H]2O`, for which the Kd is > 4 mM (inactive). With `O=C(c1ccc(Cl)s1)N1CCOCC1`, the Kd was > 4 mM (inactive). With `CC(C)(C#N)O[C@@H]1O[C@H](CO)[C@@H](O)[C@H](O)[C@H]1O` the figure was > 4 mM (inactive).

For the compound `O=S(=O)(CCN1CCCC1)c1ccccc1`, the Kd was > 4 mM (inactive). On to `O=C(c1cc2ccccc2o1)c1nc2c(n1O)CCCCC2`, for which the Kd is > 4 mM (inactive). With `Cn1nnc2c(Cl)ncnc21` the figure was > 4 mM (inactive); with `CSc1ccccc1NC(=O)c1ccc(C)o1`, > 4 mM (inactive).
